Measured values from PubChem BioAssay AID977613 (Broad Institute, 2014).
Calls of active or inactive are those of the source. The rule behind the calls is not given here.

Tested on: Broad 7084-01 inhibitor HTS, set 2
Test: inhibitors in Broad screen 7084-01, set 2 (AID 977613);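 note: host cells are infected with parasite promastigotes that become internalized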

Structure (SMILES) | active concentration
Cc1nn(C)cc1NC(=O)C[C@@H]1CC[C@@H]2[C@H](COc3ccc(NC(=O)C4CCOCC4)cc3C(=O)N2C)O1 | > 10 µM (inactive)
CN1C(=O)c2cc(NC(=O)C3CCOCC3)ccc2OC[C@H]2O[C@@H](CC(=O)NCC3CCCCC3)CC[C@H]21 | > 10 µM (inactive)
CN(C)CC(=O)N1[C@H](C#N)[C@@H](c2ccccc2-c2ccccc2F)[C@H]1CO | > 10 µM (inactive)
O=C(C1CCCC1)N1CC2(C1)[C@H](c1ccccc1)[C@@H](CO)N2CC1CC1 | > 10 µM (inactive)
CCCNC(=O)N1CC2(C1)[C@H](c1ccccc1)[C@@H](CO)N2Cc1cccc(Cl)c1 | > 10 µM (inactive)
COC(=O)[C@H]1[C@H](CO)[C@H]2Cn3c(ccc(-c4cccc(OC)c4)c3=O)[C@H]2N1Cc1nccs1 | > 10 µM (inactive)
O=C(C[C@@H]1CC[C@@H]2[C@H](COC[C@@H](O)CN2CC2CC2)O1)NCC1CC1 | > 10 µM (inactive)
CN1C(=O)c2cc(NS(C)(=O)=O)ccc2OC[C@H]2O[C@@H](CC(=O)NC3CCCCC3)CC[C@@H]21 | > 10 µM (inactive)
COc1ccccc1CNC(=O)C[C@@H]1CC[C@@H]2[C@H](COC[C@@H](O)CN2C(=O)Nc2ccccc2)O1 | > 10 µM (inactive)
O=C(CC1CC1)N1[C@H](CO)[C@@H](c2ccccc2)C12CN(Cc1ccccc1F)C2 | > 10 µM (inactive)
C/C=C/c1ccc([C@@H]2[C@H](CO)N(CC3CCOCC3)C23CN(S(=O)(=O)CC)C3)cc1 | > 10 µM (inactive)
O=C(NCCCN1CCOCC1)[C@@H]1[C@@H](CO)[C@@H]2Cn3c(ccc(C4=CCCCC4)c3=O)[C@H]1N2 | > 10 µM (inactive)
COc1ccc2c3c([nH]c2c1)[C@@H](CO)NCC31CN(Cc2cc(F)ccc2F)C1 | > 10 µM (inactive)
COc1ccccc1-c1ccc2n(c1=O)C[C@H]1[C@H](CO)[C@@H](C(=O)N3CCOCC3)[C@@H]2N1CC1CC1 | > 10 µM (inactive)
O=C(C1CCOCC1)N1CC(=O)N2[C@H](CO)[C@H](c3ccc(C#CCc4ccccc4)cc3)[C@@H]2C1 | > 10 µM (inactive)
CN1C(=O)c2cc(NC(=O)c3cccc(F)c3)ccc2OC[C@H]2O[C@H](CC(=O)NCC3CCCCC3)CC[C@@H]21 | > 10 µM (inactive)
O=S(=O)(c1ccc(F)cc1)N1CCCCN2[C@@H](CO)[C@@H](c3ccc(-c4cncnc4)cc3)[C@@H]2C1 | > 10 µM (inactive)
COc1ccccc1CN1[C@@H]2CN(C(=O)C3CCCCC3)c3ccccc3[C@@H]2[C@@H]1CO | > 10 µM (inactive)
CCCNC(=O)N1[C@H](CO)[C@@H](c2ccccc2-c2ccccc2F)[C@@H]1C#N | > 10 µM (inactive)
CN1c2ccc(C3=CCCCC3)cc2[C@H]2[C@H](CCN2C(=O)C2CCCC2)[C@@H]1CO | > 10 µM (inactive)
COc1cc(CN2CC3(CCN(S(=O)(=O)c4cn(C)cn4)CC3)c3c(n(C)c4cc(OC)ccc34)[C@H]2CO)cc(OC)c1 | > 10 µM (inactive)
CN1C(=O)c2cc(NC(=O)c3ccc(F)c(F)c3)ccc2OC[C@H]2O[C@@H](CC(=O)N[C@@H]3CCN(Cc4ccccc4)C3)CC[C@H]21 | > 10 µM (inactive)
O=C(Nc1ccc(F)cc1)N1[C@@H]2CNc3ccccc3[C@@H]2[C@@H]1CO | > 10 µM (inactive)
C[C@H](O)C#Cc1ccc([C@H]2[C@@H](CO)N3CCCCN(C(=O)c4ccc5c(c4)OCO5)C[C@H]23)cc1 | > 10 µM (inactive)

Structure (SMILES) | active concentration
Cc1ccccc1-c1ccccc1[C@@H]1[C@H](C#N)N(C(=O)c2ccccc2)[C@H]1CO | > 10 µM (inactive)
CC=Cc1ccc2n(c1=O)C[C@H]1[C@H](CO)[C@@H](C(=O)Nc3ccc(-c4ccccc4)cc3)[C@@H]2N1C(=O)CC (mixture of isomers) | > 10 µM (inactive)
N#C[C@@H]1[C@@H](c2ccccc2C2=CCCCC2)[C@@H](CO)N1C(=O)c1cccc(F)c1 | > 10 µM (inactive)
O=C(C[C@H]1CC[C@@H]2[C@H](COC[C@H](O)CN2C(=O)c2ccccc2F)O1)NCc1ccccc1 | > 10 µM (inactive)
COc1cccc(NC(=O)Nc2ccc3c(c2)C(=O)N(C)[C@@H]2CC[C@@H](CC(=O)NCCc4ccccc4)O[C@@H]2CO3)c1 | > 10 µM (inactive)
COc1ccc(CN2[C@@H]3CNc4ccccc4[C@@H]3[C@@H]2CO)cc1 | > 10 µM (inactive)
CC(C)CC#Cc1ccc([C@H]2[C@@H](CO)N3C(=O)CN(C(=O)c4ccccn4)C[C@@H]23)cc1 | > 10 µM (inactive)
O=C(C[C@H]1CC[C@@H]2[C@H](COC[C@@H](O)CN2CC2CC2)O1)NCc1ccc(Cl)cc1 | > 10 µM (inactive)
CCS(=O)(=O)N1CC(=O)N2[C@H](CO)[C@@H](c3ccc(C#CC4CCCCC4)cc3)[C@H]2C1 | > 10 µM (inactive)
COCC(=O)N1CC[C@H]2[C@@H]1c1cc(-c3ccc(F)cc3)ccc1N(C)[C@H]2CO | > 10 µM (inactive)
N#C[C@@H]1[C@H](c2ccccc2C2=CCCCC2)[C@H](CO)N1C(=O)C1CCOCC1 | > 10 µM (inactive)
Cn1cnc(CCNC(=O)C[C@@H]2CC[C@H]3[C@@H](COC[C@H](O)CN3C(=O)C3CC3)O2)c1 | > 10 µM (inactive)
C/C=C/c1ccc2c(c1)[C@H]1[C@H](CCN1C(=O)Cc1cccnc1)[C@@H](CO)N2C | > 10 µM (inactive)
O=C(C1CCOCC1)N1CC(=O)N2[C@H](C1)[C@@H](c1ccc(C#CCc3ccccc3)cc1)[C@@H]2CO | > 10 µM (inactive)
CCC(=O)N1[C@H](CO)[C@H]2c3ccccc3N(S(=O)(=O)c3ccccc3C)C[C@H]21 | > 10 µM (inactive)
N#C[C@H]1[C@@H](c2ccccc2C2=CCCC2)[C@@H](CO)N1S(=O)(=O)c1ccccc1 | > 10 µM (inactive)
COc1cccc(C(=O)N2C[C@H]3[C@@H](c4ccccc42)[C@H](CO)N3Cc2ccccc2Cl)c1 | < 10 µM
COCC(=O)N1[C@@H]2c3ccc(/C=C/c4ccccc4)c(=O)n3C[C@H]1[C@H](CO)[C@H]2C(=O)N1CCOCC1 | > 10 µM (inactive)
CC(C)NC(=O)N1[C@H](CO)[C@H](c2ccccc2-c2ccc(F)cc2)[C@@H]1C#N | > 10 µM (inactive)
CCCNC(=O)N1CC(=O)N2[C@@H](CO)[C@@H](c3ccc(C#CCC4CCCC4)cc3)[C@@H]2C1 | > 10 µM (inactive)
CS(=O)(=O)N1C[C@H](O)COC[C@@H]2O[C@@H](CC(=O)NCc3ccc(-c4ccccc4)cc3)CC[C@H]21 | > 10 µM (inactive)
COc1ccc2c3c(n(C)c2c1)[C@H](CO)N(CC1CCOCC1)CC31CCN(C(=O)CN(C)C)CC1 | > 10 µM (inactive)
O=C(C[C@H]1CC[C@H]2[C@@H](COC[C@@H](O)CN2C(=O)Nc2ccc(C(F)(F)F)cc2)O1)NCC1CC1 | > 10 µM (inactive)
CN1CCCCN2[C@H](C1)[C@H](c1ccc(-c3ccc(F)cc3)cc1)[C@@H]2CO | > 10 µM (inactive)

Structure (SMILES) | active concentration
Cc1noc(C)c1NC(=O)Nc1ccc2c(c1)C(=O)N(C)[C@H]1CC[C@H](CC(=O)NCc3ccc(Cl)cc3)O[C@@H]1CO2 | > 10 µM (inactive)
O=C(C[C@@H]1CC[C@H]2[C@@H](COC[C@H](O)CN2Cc2cccc(C(F)(F)F)c2)O1)NCc1ccccc1 | > 10 µM (inactive)
COc1ccc(NC(=O)N2CC(=O)N3[C@H](CO)[C@H](c4ccc(Br)cc4)[C@H]3C2)cc1 | > 10 µM (inactive)
CCCNC(=O)N1CC(=O)N2[C@H](C1)[C@H](c1ccc(C#CCC3CCCC3)cc1)[C@@H]2CO | > 10 µM (inactive)
O=C([C@H]1[C@H](CO)[C@H]2Cn3c(ccc(-c4ccccc4F)c3=O)[C@@H]1N2C(=O)C1CCC1)N1CCCCC1 | > 10 µM (inactive)
COc1ccc2c3c(n(C)c2c1)[C@@H](CO)N(C(=O)Nc1cccc(F)c1)CC31CN(Cc2nccs2)C1 | > 10 µM (inactive)
Cc1ccccc1S(=O)(=O)N1CC[C@@H]2[C@H]1c1cc(C#Cc3ccccc3)ccc1N[C@@H]2CO | > 10 µM (inactive)
O=C(c1ccncc1)N1CC2(C1)[C@@H](c1ccccc1)[C@@H](CO)N2CC1CCOCC1 | > 10 µM (inactive)
Cn1cnc(CCNC(=O)C[C@@H]2CC[C@H]3[C@@H](COC[C@@H](O)CN3C(=O)C3CC3)O2)c1 | > 10 µM (inactive)
N#Cc1cccc(-c2ccc3c(c2)[C@H]2[C@H](CCN2S(=O)(=O)c2ccc(F)cc2)[C@@H](CO)N3)c1 | > 10 µM (inactive)
CN1c2ccc(C#Cc3cccnc3)cc2[C@H]2[C@H](CCN2S(=O)(=O)c2ccccc2F)[C@@H]1CO | > 10 µM (inactive)
CN1CCN(C(=O)C[C@@H]2CC[C@@H]3[C@H](COC[C@H](O)CN3CC3CC3)O2)CC1 | > 10 µM (inactive)
COc1cccc(NC(=O)N2C[C@@H](O)COC[C@H]3O[C@@H](CC(=O)NC4CCC4)CC[C@@H]32)c1 | > 10 µM (inactive)
Cc1ccccc1-c1ccc([C@H]2[C@H](CO)N3C(=O)CN(C(=O)Nc4cccc(F)c4)C[C@@H]23)cc1 | > 10 µM (inactive)
O=C(C[C@@H]1CC[C@H]2[C@@H](COC[C@@H](O)CN2C(=O)c2cccnc2)O1)NCc1ccccc1 | > 10 µM (inactive)
O=C(CN1CCOCC1)N1CC(=O)N2[C@H](CO)[C@H](c3ccc(-c4cccc(F)c4)cc3)[C@@H]2C1 | > 10 µM (inactive)
O=C(c1cccc(F)c1)N1C[C@@H]2[C@H](c3ccccc31)[C@H](CO)N2Cc1cocn1 | > 10 µM (inactive)
CCCC#Cc1ccc([C@@H]2[C@H]3CN(C(=O)CN4CCOCC4)CC(=O)N3[C@H]2CO)cc1 | > 10 µM (inactive)
O=C(c1ccccc1)N1[C@H](CO)[C@H](c2ccccc2)C12CN(Cc1nccs1)C2 | > 10 µM (inactive)
COCC(=O)N1[C@H](C#N)[C@H](c2ccccc2-c2ccccc2F)[C@H]1CO | > 10 µM (inactive)
OC[C@H]1[C@@H](c2ccc(-c3ccccc3F)cc2)[C@H]2CN(Cc3cncnc3)CCCCN21 | > 10 µM (inactive)
CCCNC(=O)N1CC(=O)N2[C@H](CO)[C@H](c3ccc(-c4ccc(F)cc4)cc3)[C@H]2C1 | > 10 µM (inactive)
